Measured values reported in patent US20260327211A1, “MODULATORS OF A POTASSIUM CHANNEL AND OF TRPV1 CHANNEL AND USES THEREOF” (Bsense Bio Therapeutics Ltd., priority 2023, published 2026).

What was measured:
rats [1] = experiment: Hot plate (53° C.); format: in vivo, rat; details: 10 mg/kg PO, 2 and 4 hours post-dose
Description: Hot Plate: Animals were placed on hot plate analgesia meter (IITC Life Science Inc., CA, USA) set to 53±1° C., and the time until the first escape response was observed was recorded. A response was considered when the animals lifted or licked their leg or performed kicking behavior.

humans = details: Rowbotham 2011; cited from earlier work
rats [2] = experiment: Core body temperature; format: in vivo, rat; details: 10 mg/kg
Description: Core Body Temperature: Following two days of habituation to the measurement method, the body temperature was measured on study day for baseline values and then again post-dosing in the time points indicated in the figure. Body temperature was measured using a probe gently inserted into the animal anus using a corn oil lubricant (C8267, Sigma-Aldrich, IL).

CHO-K1 cells = experiment: In vitro micronucleus; format: cell-based; details: Plate 2 without S9, 3 hours
Description: (§1) The micronucleus assay was performed according to the regulatory guidelines. In brief, CHO-K1 cells were plated at 10000 cells/well in 3 plates and incubated In CHO-K1 growth medium (containing F12K, 10% FBS and 1% PS) overnight.
(§2) As a control for the S9 treatment, plate No. 1, cells were treated with cyclophosphamide as a positive control, for 3 hours. For plate No. 2, without S9 treatment, cells were treated with mitomycin C as a positive control, compounds for 3 hours, and for plate No. 3, without S9 treatment, cells were treated with bleomycin sulfate as a positive control continuously for 24 hours.
(§3) On the following day, 6 μg/mL of cytochalasin B were added to each well and plates were further incubated overnight. In the day after medium was replaced with a combined 10 μg/mL Hoechst dye solution and 0.5 μM calcein-AM in 100 μL warm DPBS for 30 minutes and the plates were scanned using CQ1 high-content analysis system.

In vitro micronucleus = format: cell-based; details: hamster, cho-k1 cells; Plate 2 without S9, 3 hours; read-out: Cytotoxicity (%) Absolute EC50
Description: as §1, §2, §3

hKv7.2/3 = molecular target: T1, hKv7.2/3 (Homo sapiens, UniProt O43525+O43526); experiment: Kv7.2/7.3 HCS, FLIPR potassium (thallium) assay, CHO/hKv7.2/3; format: cell-based; details: read-out: Kv7.2/3 maximal opening vs. control
T1 construct: host or cells: CHO
Description: Cell culture: Chinese hamster ovary (CHO) cell-line cells with a constitutive expression of human Kv7.2/3 channels (B'SYS GmbH, Switzerland) were cultured in F-12 nutrient mixture (Biological Industries) supplemented with 10% fetal bovine serum (Biological Industries) and 1% penicillin-streptomycin (Biological Industries) in a humidified 5% CO2 incubator at 37° C. To maintain the stability of human Kv7.2/7.3 expression antibiotic selection was added (Puromycin 5 μg/ml).
High content screen (HCS) using FLIPR Potassium Assay Kit: A FLIPR Potassium Assay Kit (R8222 FLIPR Potassium Assay Explorer Kits, Molecular Devices) was used with the CHO/hKv7.2/3 cell line to screen molecules against the hKv7.2/7.3 ion channel target. The assay exploits the permeability of thallium ions (Tl+) through potassium (K+) channels. In this assay, Tl+ indicator dye is used to produce a bright fluorescent signal upon the binding to Tl+ conducted through the potassium channels. The intensity of the Tl+ signal is proportional to the number of potassium channels in the open state. Therefore, it provides a functional indication of the potassium channel activity. To activate the voltage-gate potassium channels, the cells were stimulated with a mixture of K+ and Tl+ to depolarize the cell membrane. The fluorescence increase in the assay represents the influx of Tl+ into the cell specifically through the potassium channel, providing a functional read-out of hKv7.2/3 activity using a fluorescent plate reader coupled with injectors used to activate the channels.
According to optimization process to achieve uniform and consistent screening conditions the following protocol was established: Cells were seeded in 384-well, black-walled, clear-bottomed Greiner #781091, at a density of 5000 cells per well 24 hours before the assay conductance and incubated overnight in their normal growth medium. On the experiment day the medium was replaced with HBSS, HEPES, and the test compound/vehicle (0.2% DMSO). Dye solution (prepared according to the manufacturer) was added to the plates, which were incubated for 1.5 h light-protected in room temperature. Tecan Spark reader plate injectors were primed with Tl+(1 mM Tl2SO4) or Tl++K+(1 mM Tl2SO4; 5 mM K2SO4) for channel activation and data correction. […] To calculate EC50 values, the data was fitted to sigmoidal regression using Prism GraphPad. The fitting was constrained to a minimum of 1 and a maximal response of about 3.6 unless a different maximal response could be clearly identified.

[3] = test system: sodium and calcium channel; details: cited from earlier work
[4] = test system: KCNQ2-5-type potassium channels; details: cited from earlier work
hKv7.4 = molecular target: T2, hKv7.4 (Homo sapiens, UniProt P56696); details: positive control; read-out: Known IC50, Kv7.4; cited from earlier work
T2 construct: expressed in transfected cells; host or cells: CHO

hKv7.3/5 = molecular target: T3, hKv7.3/5 (Homo sapiens, UniProt O43525+Q9NR82); details: positive control; read-out: Known IC50, Kv7.3/5; cited from earlier work
T3 construct: expressed in transfected cells; host or cells: CHO

HepG2 cells = details: positive control; read-out: Toxicity IC50; cited from earlier work
MIA-OA rats = experiment: Dynamic weight bearing in MIA-OA rats; format: in vivo, rat; details: 100 mg/kg (naproxen 30 mg/kg), 6 hours post-dose
Description: Monosodium iodoacetate-induced osteoarthritis (MIA-OA): The animals were anaesthetized using an Isoflurane+O2 mixture. Then 50 μl of MIA at a concentration of 60 mg/mL was injected into the right knee joint using a 30 G needle. On study days 13 and 14 following MIA injection, the animals' dynamic weight bearing and response to von Frey filaments were measured.
Dynamic Weight Bearing (DWB): DWB study was performed using the DWB2 apparatus (Bioseb, Paris, France). The rats were placed in a transparent cage containing a matrix comprising around 2000 high-precision force sensors embedded in its floor where they were allowed to move freely. The force sensors measured the weight distribution on each of the four paws of the animal in grams. The animal was filmed from above using a high-definition camera, and the video feed was analyzed in real-time during the test using tracking software, allowing a precise analysis of the animal's posture and hind paws identification. Out of 5 minutes of animal behavior recording, a segment of 2 minutes was analyzed. Once the analysis was completed, the software provided the weight distribution of each hind paw as the main readout and the ratio between the injured and intact hind paws was then calculated.

T2 sequence (P56696 whole entry): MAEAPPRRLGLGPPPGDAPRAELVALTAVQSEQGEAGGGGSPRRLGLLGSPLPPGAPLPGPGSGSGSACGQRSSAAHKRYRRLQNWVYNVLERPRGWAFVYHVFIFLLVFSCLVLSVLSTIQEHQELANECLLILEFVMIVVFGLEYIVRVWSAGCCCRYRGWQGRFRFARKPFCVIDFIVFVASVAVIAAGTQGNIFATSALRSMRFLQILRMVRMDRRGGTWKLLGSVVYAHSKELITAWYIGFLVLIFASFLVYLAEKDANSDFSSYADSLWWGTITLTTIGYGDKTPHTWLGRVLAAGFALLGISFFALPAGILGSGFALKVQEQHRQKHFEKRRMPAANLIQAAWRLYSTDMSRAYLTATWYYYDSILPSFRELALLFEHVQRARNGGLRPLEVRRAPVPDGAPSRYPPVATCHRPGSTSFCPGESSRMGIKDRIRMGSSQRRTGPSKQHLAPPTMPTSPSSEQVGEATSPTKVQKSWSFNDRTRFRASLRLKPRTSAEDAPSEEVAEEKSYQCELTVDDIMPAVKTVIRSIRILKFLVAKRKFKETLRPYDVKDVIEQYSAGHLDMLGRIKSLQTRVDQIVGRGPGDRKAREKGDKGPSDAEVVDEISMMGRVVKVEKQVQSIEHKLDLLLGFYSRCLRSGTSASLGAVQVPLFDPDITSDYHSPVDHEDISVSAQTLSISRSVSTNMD
T3 sequence (O43525 whole entry): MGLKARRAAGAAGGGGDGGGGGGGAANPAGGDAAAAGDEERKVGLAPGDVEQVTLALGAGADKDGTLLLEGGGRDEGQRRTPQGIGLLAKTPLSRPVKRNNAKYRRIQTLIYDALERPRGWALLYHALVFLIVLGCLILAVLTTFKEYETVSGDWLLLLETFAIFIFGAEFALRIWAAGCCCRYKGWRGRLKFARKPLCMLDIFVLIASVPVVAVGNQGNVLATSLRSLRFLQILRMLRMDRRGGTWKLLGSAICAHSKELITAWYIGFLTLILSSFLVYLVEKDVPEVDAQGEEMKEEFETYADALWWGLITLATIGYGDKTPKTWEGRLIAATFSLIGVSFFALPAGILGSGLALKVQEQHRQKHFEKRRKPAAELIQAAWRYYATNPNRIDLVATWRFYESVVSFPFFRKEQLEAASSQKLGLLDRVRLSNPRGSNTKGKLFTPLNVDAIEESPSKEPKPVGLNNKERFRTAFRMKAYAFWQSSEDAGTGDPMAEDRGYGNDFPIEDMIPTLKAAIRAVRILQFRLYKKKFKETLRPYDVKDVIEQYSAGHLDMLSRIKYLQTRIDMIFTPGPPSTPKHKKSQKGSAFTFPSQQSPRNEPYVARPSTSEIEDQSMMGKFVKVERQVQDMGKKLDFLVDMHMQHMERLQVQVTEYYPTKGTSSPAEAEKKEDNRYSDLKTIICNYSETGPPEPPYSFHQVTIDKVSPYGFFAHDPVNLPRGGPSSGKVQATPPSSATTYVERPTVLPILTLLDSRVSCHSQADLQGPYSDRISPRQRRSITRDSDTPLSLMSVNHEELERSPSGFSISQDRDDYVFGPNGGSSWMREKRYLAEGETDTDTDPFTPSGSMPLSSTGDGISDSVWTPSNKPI
T3 sequence (Q9NR82 whole entry): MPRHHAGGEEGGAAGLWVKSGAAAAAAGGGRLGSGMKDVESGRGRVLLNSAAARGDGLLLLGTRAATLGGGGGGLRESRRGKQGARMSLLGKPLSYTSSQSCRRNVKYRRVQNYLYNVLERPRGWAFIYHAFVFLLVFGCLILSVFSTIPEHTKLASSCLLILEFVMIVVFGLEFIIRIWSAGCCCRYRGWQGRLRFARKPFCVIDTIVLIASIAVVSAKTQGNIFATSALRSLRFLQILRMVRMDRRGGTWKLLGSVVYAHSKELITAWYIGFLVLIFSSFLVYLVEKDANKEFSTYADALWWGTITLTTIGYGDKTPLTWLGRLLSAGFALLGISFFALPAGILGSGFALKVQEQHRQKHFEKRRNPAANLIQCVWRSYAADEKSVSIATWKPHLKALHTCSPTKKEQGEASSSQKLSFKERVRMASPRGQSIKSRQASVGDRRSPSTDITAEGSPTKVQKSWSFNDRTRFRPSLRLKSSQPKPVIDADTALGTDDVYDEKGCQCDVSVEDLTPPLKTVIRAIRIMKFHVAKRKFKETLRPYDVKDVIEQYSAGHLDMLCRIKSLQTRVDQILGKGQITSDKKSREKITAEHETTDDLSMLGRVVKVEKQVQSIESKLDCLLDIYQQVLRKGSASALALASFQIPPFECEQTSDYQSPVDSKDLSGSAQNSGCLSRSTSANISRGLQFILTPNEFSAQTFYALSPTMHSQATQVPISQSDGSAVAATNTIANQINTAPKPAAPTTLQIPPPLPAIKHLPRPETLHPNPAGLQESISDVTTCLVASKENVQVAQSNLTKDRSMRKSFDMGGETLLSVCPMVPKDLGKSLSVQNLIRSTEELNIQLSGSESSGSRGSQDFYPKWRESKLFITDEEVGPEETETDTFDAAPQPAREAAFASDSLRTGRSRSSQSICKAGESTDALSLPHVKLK
T1 sequence (O43525 whole entry): as the sequence (O43525 whole entry) above
T1 sequence (O43526 whole entry): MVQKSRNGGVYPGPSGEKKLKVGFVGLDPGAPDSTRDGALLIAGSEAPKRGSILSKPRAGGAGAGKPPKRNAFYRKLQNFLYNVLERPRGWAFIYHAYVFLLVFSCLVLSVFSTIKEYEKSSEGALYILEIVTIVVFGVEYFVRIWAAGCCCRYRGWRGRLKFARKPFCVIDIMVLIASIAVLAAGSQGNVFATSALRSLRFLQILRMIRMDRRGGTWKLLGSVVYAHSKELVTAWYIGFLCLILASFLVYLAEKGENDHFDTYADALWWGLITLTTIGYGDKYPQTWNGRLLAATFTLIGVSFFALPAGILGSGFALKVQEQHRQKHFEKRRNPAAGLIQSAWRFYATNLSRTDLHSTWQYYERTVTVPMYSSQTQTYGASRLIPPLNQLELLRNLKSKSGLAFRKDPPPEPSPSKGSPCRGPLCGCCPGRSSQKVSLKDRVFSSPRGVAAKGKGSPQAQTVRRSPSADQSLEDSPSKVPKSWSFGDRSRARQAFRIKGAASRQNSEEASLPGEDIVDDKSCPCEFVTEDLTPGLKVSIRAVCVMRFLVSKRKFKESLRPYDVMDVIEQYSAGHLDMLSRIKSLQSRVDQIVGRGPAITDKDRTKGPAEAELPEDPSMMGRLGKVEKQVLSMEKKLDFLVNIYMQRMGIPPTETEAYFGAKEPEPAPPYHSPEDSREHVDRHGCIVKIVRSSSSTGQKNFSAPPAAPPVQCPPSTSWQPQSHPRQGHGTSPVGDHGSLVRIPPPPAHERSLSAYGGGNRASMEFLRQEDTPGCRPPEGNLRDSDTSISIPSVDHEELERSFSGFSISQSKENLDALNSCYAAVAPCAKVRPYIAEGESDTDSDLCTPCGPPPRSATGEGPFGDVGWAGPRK

In the case of `CC(C)(C)c1ccc2c(c1)CC[C@H]2NC(=O)Nc1cccc2[nH]ncc12` [ABT102, reference compound], the “Hot plate escape latency” value (rats [1]) is listed as “statistically significant increase in hot plate escape latency”, the “Heat pain threshold, clinical” value (humans) is listed as “increase heat pain threshold” and the “Increase of core body temperature vs vehicle” value (rats [2]; 6 hours post-dose) is listed as 1.3 °C. For the same compound, the “Increase of core body temperature vs vehicle” value (rats [2]; 10 hours post-dose) was 0.8 °C.

With `CO[C@@]12[C@H](COC(N)=O)C3=C(C(=O)C(C)=C(N)C3=O)N1C[C@@H]1N[C@@H]12` [Mitomycin C, reference compound] the “Micronucleus response Absolute MEC” value (CHO-K1 cells) was greater than 16 µM and the CC50 at 3 h (In vitro micronucleus) was greater than 16000 nM.

For `CCOC(=O)Nc1ccc(NCc2ccc(F)cc2)cc1N` [Retigabine, N-(2-amino-4-(4-fluorobenzylamino)-phenyl)carbamic acid ethyl ester], the Emax (hKv7.2/3) is listed as 220%, the “Other effects” value [3] is listed as “sodium and calcium channel blocking activity” and the “Channel selectivity” value [4] is listed as “highly selective for KCNQ2-5-type potassium channels”. The IC50 (hKv7.4) was 1500 to 5000 nM and the IC50 (hKv7.3/5) was 1500 to 5000 nM.

In the case of `NS(=O)(=O)OC[C@H]1C[C@@H](Nc2ccnc3cc(-c4cccc(SC(F)(F)F)c4)nn23)[C@H](O)[C@@H]1O` [TAK243], the IC50 (HepG2 cells) is listed as roughly 200 nM.

With `COc1ccc2cc([C@H](C)C(=O)O)ccc2c1` [naproxen, reference compound] the “Reversal of weight bearing changes” value (MIA-OA rats) was “comparable reversal of weight bearing changes”.
